Reference: paper PMC7828111, “In Search for Multi-Target Ligands as Potential Agents for Diabetes Mellitus and Its Complications—A Structure-Activity Relationship Study on Inhibitors of Aldose Reductase and Protein Tyrosine Phosphatase 1B” (Molecules, 2021)

Key:
human recombinant PTP1B [1] = molecular target: T1, human recombinant PTP1B (Homo sapiens, UniProt P18031); test: Inhibition of human recombinant PTP1B, p-nitrophenyl phosphate as substrate; assay type: biochemical; settings: human recombinant PTP1B, pNPP as substrate; mean ± S.E.M
T1 sequence (P18031 1-435): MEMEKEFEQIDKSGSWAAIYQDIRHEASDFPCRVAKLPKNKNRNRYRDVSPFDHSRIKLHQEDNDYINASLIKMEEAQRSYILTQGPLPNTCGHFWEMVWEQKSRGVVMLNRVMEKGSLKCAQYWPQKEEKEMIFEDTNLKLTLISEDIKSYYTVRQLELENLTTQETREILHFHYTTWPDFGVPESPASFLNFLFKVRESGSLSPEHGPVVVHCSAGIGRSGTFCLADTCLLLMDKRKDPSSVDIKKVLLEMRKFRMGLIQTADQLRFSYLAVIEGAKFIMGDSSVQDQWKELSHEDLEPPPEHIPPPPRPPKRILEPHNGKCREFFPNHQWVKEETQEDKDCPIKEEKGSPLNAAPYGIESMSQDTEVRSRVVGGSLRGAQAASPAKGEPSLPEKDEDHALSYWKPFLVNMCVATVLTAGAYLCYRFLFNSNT
Method: PTP1B activity was determined as follow. […] After an appropriate interval time, the reaction was stopped diluting assay solution with 2 mL of KOH 0.1 M. The amount of p-nitrophenol released was determined measuring the absorbance of the solution at 400 nm using a spectrophotometer and a 1-cm optical pathlength (εmM of p-nitrophenol is 18). The IC50 value was determined measuring the pNPP hydrolysis rate in the presence of increasing inhibitor concentration. For each inhibitor, 15–16 different concentrations were used. All tests were carried out in triplicate and data obtained were normalized respect to control sample.

[2] = test system: insulin receptor (IRβ) phosphorylation in HepG2 cells; test: Insulin receptor phosphorylation in HepG2 cells (western blot); assay type: cell-based, human
Method: The insulin mimetic/sensitizing activity of compound 4f was evaluated on both HepG2 and C2C12 cells. Starved HepG2 and C2C12 cells were incubated in the presence of compound 4f (25 μM) for 90 min and after stimulated or not with insulin (10 nM). Then, cells extracts were analysed to evaluate phosphorylation levels of the insulin receptor.
HepG2 and differentiated C2C12 cells were starved for 24 h and then incubated in the presence of compound 4f (25 μM, final concentration) for 90 min. After this time, cells were washed with PBS and then stimulated or not with 10 nM insulin for 30 min. Then, cells were lysed and cellular proteins separated on a 12% SDS-PAGE. After electrophoresis, cellular proteins were transferred on a PVDF membrane by western blot technique and then probed against antibodies able to specifically recognize insulin receptor (I2033 Sigma Aldrich) or phosphorylated form of IR (MABS65, Sigma-Aldrich). Sample loading was evaluated probing PVDF membrane with anti-actin antibodies (ABT1485 Sigma Aldrich).

human recombinant PTP1B [3] = molecular target: T1, human recombinant PTP1B; test: Reversibility assay (dilution test) with PTP1B; assay type: biochemical; settings: saturating inhibitor, 60 min 37 °C, diluted 400 folds
Method: An aliquot of the enzyme was incubated for 60 min at 37 °C in the presence of saturating amount of PTP1B inhibitor. After this time, an aliquot of the enzyme was withdrawn and diluted 400 folds in the assay buffer containing 2.5 mM of pNPP. After 15 min, the reaction was stopped by adding 1 mL of KOH 0.2 M. The amount of pNP released was calculating measuring the absorbance at 400 nm of solutions using a spectrophotometer. Data obtained were normalized respect to control tests, which was carried out diluting the enzyme with DMSO, the solvent used to dissolve all compounds. Data reported in the figure represent the mean value +/− S.E.M. (n = 3).

human recombinant AR [4] = molecular target: T2, human recombinant AR (Homo sapiens, UniProt P15121); test: Reversibility of AR inhibition (dialysis); assay type: biochemical
T2 construct: made in house; host or cells: E. coli BL21(DE3)pLysS
Method: In order to evaluate the reversibility of the inhibitory action, 8 mU of purified AR were assayed in the presence of 5 μM of compounds 4a, 4e and 4f. In these conditions less than 15% of the enzyme activity was measured in the presence of 2 mM L-idose as substrate. The mixture was then extensively dialysed on Amicon ultrafiltration membrane (cut off 10 KDa) against 10 mM sodium phosphate buffer, pH 7.0. After dialysis, the enzyme activity was again measured as above and compared to that of a mixture in the absence of inhibitor and treated in the same conditions.

human recombinant PTP1B [5] = molecular target: T1, human recombinant PTP1B; test: Kinetic analysis of PTP1B inhibition (Lineweaver-Burk plot); assay type: biochemical; settings: pNPP as substrate
Method: Kinetic analyses were carried out to dissect action mechanism of compound 4e and 4f. Briefly, the main kinetic parameters, Km and Vmax, were calculated measuring the initial hydrolysis rate of PTP1B in the presence of increasing pNPP concentration (seven different concentrations in the 0.5–25 mM range). All assays were carried out in duplicate. Data obtained were fitted using the Michaelis-Menten equation. To evaluate the action mechanism of inhibitors, we studied the dependence of Km and Vmax from inhibitors concentration, using three different inhibitor concentrations, at least. Data obtained were then analysed by double reciprocal plot (Lineweaver-Burk plot).

human recombinant AR [6] = molecular target: T2, human recombinant AR; test: Kinetic analysis of AR inhibition (Lineweaver-Burk and secondary plots); assay type: biochemical
Method: The kinetic analysis of compounds 4a, 4e and 4f was performed by measuring reaction rates with different L-idose concentrations s (S) in the absence and in the presence of different inhibitors concentrations. Data were analyzed by Linewever-Burk plots.

C2C12 cells = test: Cell viability, MTT assay, C2C12; assay type: cell-based, murine; settings: C2C12, 48 h
Method: Human liver cells (HepG2) and murine myoblasts (C2C12) were purchased by Sigma-Aldrich, which obtained them from the European Collection of Authenticated Cell Cultures (ECACC). HepG2 and C2C12 cells were grown in Dulbecco’s Modified Eagle’s medium (DMEM) supplemented with 10% foetal bovine serum (FBS), 2 mM glutamine, 100 IU/mL penicillin, 100 μg/mL streptomycin (Sigma-Aldrich, St. Louis, MO, USA), in a humidified atmosphere and with 5% CO2 at 37 °C. Differentiation of C2C12 was induced incubating murine myoblasts in DMEM supplemented with 2% horse serum. C2C12 cells were plated and grown until they reach 70% confluence. Then, cells were incubated in the presence of 2% horse serum for 96 h. Every 48 h, the medium was replaced with fresh medium. After 96 h, the degree of differentiation was evaluated analysing cells with a contrast phase microscope.
HepG2 and C2C12 cells were incubated in the presence of increasing concentrations of compounds 4e and 4f for 48 h at 37 °C. After this time, cells were washed with PBS and then incubated for 1 h with 0.5 mg/mL of MTT dissolved in complete medium. Then cells were washed and lysed with 300 μL of DMSO. The absorbance of solutions were evaluated using a microplate readers at 595 nm. All data were normalized respect to control experiment.

In the case of `O=C(O)CCN1C(=O)/C(=C/c2ccc(OCCc3ccccc3)cc2)SC1=S` [4f, 3-[(5Z)-4-Oxo-{5-[4-(2-phenylethoxy)phenyl]methylidene}-2-thioxothiazolidin-3-yl]propanoic acid], the IC50 (human recombinant PTP1B [1]) is reported as 12.7 ± 0.3 µM, the “Increase of IRβ phosphorylation level after stimulation with insulin” value ([2]; HepG2, 25 μM for 90 min, then 10 nM insulin 30 min, control cells 39%) is reported as 260% and the “Effect on basal phosphorylation levels of IRβ” value ([2]; HepG2, 25 μM, 90 min, no insulin) is reported as “marked reduction”. For the same compound, the “Reversibility of PTP1B inhibition” value (human recombinant PTP1B [3]) was “reversible inhibitors”, the “AR enzyme activity recovered after removal of the inhibitor upon extensive dialysis” value (human recombinant AR [4]; 5 μM compound before dialysis) was “more than 90%” and the “AR enzyme activity measured in the presence of compound” value (human recombinant AR [4]; 5 μM compound, 2 mM L-idose, before dialysis) was “less than 15%”. The “Mechanism of PTP1B inhibition” value (human recombinant PTP1B [5]) was “mixed-type non-competitive inhibitors”, the “PTP1B K′i (apparent dissociation constant, EIS complex)” value (human recombinant PTP1B [5]) was 2.3 ± 0.1 µM and the Ki (human recombinant PTP1B [5]; read-out: PTP1B Ki (apparent dissociation constant)) was 0.9 ± 0.1 µM. For the same compound, the “AR Ki relative to K′i” value (human recombinant AR [6]; Ki higher than K′i) was “at least ten-fold higher”, the “AR K′i (apparent dissociation constant, EIS complex)” value (human recombinant AR [6]; L-idose as substrate) was 2.9 ± 0.12 µM and the “Mechanism of AR inhibition” value (human recombinant AR [6]; L-idose as substrate) was “uncompetitive inhibitors”. For the same compound, the Ki (human recombinant AR [6]; L-idose as substrate, read-out: AR Ki (apparent dissociation constant)) was > 30 µM, the “Concentration at which a reduction of cell viability was observed” value (C2C12 cells; highest concentration tested) was 50 µM and the “Cytotoxicity (cell viability, MTT)” value (C2C12 cells; up to 50 μM) was “well tolerated”.
